Measured values: patent publication US11723540B2, “Device and method for in vivo photoacoustic diagnosis and photothermal purging of infected blood” (priority 2012, dated 2023)

Key:
[1] = test system: B16F10 cultured mouse melanoma cells; format: cell-based
Excerpt: B16F10 cultured mouse melanoma cells (ATCC, Rockville, Md.) were used in this experiment. The cells were maintained using standard procedures (Ara et al. 1990, Weight et al. 2006, Zharov et al. 2006), including serial passage in phenol-free RPMI 1640 medium (Invitrogen, Carlsbad, Calif.) supplemented with 10% fetal bovine serum (FBS, Invitrogen). For comparison to the detection of unlabeled melanoma cells, the endogenous cell absorption was increased by staining with ICG (Akorn Inc., USA), a strongly absorbent dye in the NIR range, for 30 min at 37° C. and in the presence of 5% CO2.

[2] = mouse, in vivo
Excerpt: In this experiment, a prototype PAFC system was used to detect Lymphazurin circulating in the blood vessels of a mouse ear.
The prototype PAFC system was built on the platform of an Olympus BX51 microscope (Olympus America, Inc.) and a tunable optical parametric oscillator (OPO) pumped by an Nd:YAG laser (Lotis Ltd., Minsk, Belarus). […] Laser energy was directed to the blood vessels using a conventional lens, or an optical fiber. PA waves emitted by the cells were detected by ultrasound transducers (unfocused Panametrics model XMS-310, 10 MHz; focused cylindrical Panametrics model V312-SM, 10 MHz, focused lengths of 6 mm, 12 mm, and 55 mm; and customized resonance transducers), and the ultrasound transducer outputs were conditioned by an amplifier (Panametrics model 5662, bandwidth 50 kHz-5 MHz; Panametrics model 5678, bandwidth 50 kHz-40 MHz; customized amplifiers with adjustable high and low frequency boundaries in the range to 50-200 KHz and 1-20 MHz, respectively; resonance bandwidth of 0.3-1.0 MHz). The amplifier output signals were recorded with a Boxcar data acquisition system (Stanford Research Systems, Inc.) and a Tektronix TDS 3032B oscilloscope, and were analyzed using standard and customized software. […] The signals from the oscilloscope screen were recorded with a digital camera (Sony, Inc.) and video camera (JVC, Inc.). […]

Row | SMILES | toxicity after labeling (trypan blue exclusion) [1] | clearance of Lymphazurin from the blood [2]
1 | CC1(C)C(/C=C/C=C/C=C/C=C2\N(CCCCS(=O)(=O)O)c3ccc4ccccc4c3C2(C)C)=[N+](CCCCS(=O)(=O)[O-])c2ccc3ccccc3c21 [ICG, Indocyanine Green] | No toxicity was observed | –
2 | CCN(CC)c1ccc(C(=C2C=CC(=[N+](CC)CC)C=C2)c2cc(S(=O)(=O)[O-])ccc2S(=O)(=O)[O-])cc1.[Na+] [Lymphazurin, Isosulfan Blue] | – | 50 min
